From the kinase profiling compilation of Christmann-Franck et al. (2016)

Experiments:
Experiment in all cases: KINOMEscan competition binding
Settings in all cases: compound 10.0 µM
PRKCD (human) = PRKCD (human) (UniProt Q05655)
PIM1 (human) = PIM1 (human) (UniProt P11309)
KIT (human) = KIT (human) (UniProt P10721)
PAK6 (human) = PAK6 (human) (UniProt Q9NQU5)
[1] = test system: MET (human), P08581 [M1250T]
CDK17 (human) = CDK17 (human) (UniProt Q00537)
PDPK1 (human) = PDPK1 (human) (UniProt O15530)
PAK2 (human) = PAK2 (human) (UniProt Q13177)
MAPK12 (human) = MAPK12 (human) (UniProt P53778)
[2] = test system: RET (human), P07949 [V804L]
ZAP70 (human) = ZAP70 (human) (UniProt P43403)
MYLK (human) = MYLK (human) (UniProt Q15746)
NEK9 (human) = NEK9 (human) (UniProt Q8TD19)
EPHA2 (human) = EPHA2 (human) (UniProt P29317)
EPHA8 (human) = EPHA8 (human) (UniProt P29322)
CAMK2A (human) = CAMK2A (human) (UniProt Q9UQM7)
[3] = test system: PIK3CA (human), P42336 [Q546K]
CSNK1A1L (human) = CSNK1A1L (human) (UniProt Q8N752)
TEK (human) = TEK (human) (UniProt Q02763)
MAP3K1 (human) = MAP3K1 (human) (UniProt Q13233)
ACVR1B (human) = ACVR1B (human) (UniProt P36896)
CDK19 (human) = CDK19 (human) (UniProt Q9BWU1)
DYRK1B (human) = DYRK1B (human) (UniProt Q9Y463)
NIM1 (human) = NIM1 (human) (UniProt Q8IY84)
[4] = target: JAK2 JH1 catalytic (human) (UniProt O60674)
CSNK1G2 (human) = CSNK1G2 (human) (UniProt P78368)
RPS6KA4 KD1 (human) = RPS6KA4 KD1 (human) (UniProt O75676)
MYLK3 (human) = MYLK3 (human) (UniProt Q32MK0)
PIK3CG (human) = PIK3CG (human) (UniProt P48736)
HCK (human) = HCK (human) (UniProt P08631)
ALK (human) = ALK (human) (UniProt Q9UM73)
STK32C (human) = STK32C (human) (UniProt Q86UX6)
[5] = test system: PIK3CA (human), P42336 [E542K]
DCLK2 (human) = DCLK2 (human) (UniProt Q8N568)
ANKK1 (human) = ANKK1 (human) (UniProt Q8NFD2)
RPS6KA2 KD2 (human) = RPS6KA2 KD2 (human) (UniProt Q15349)
BTK (human) = BTK (human) (UniProt Q06187)
[6] = test system: PIK3CA (human), P42336 [E545A]
BRAF (human) = BRAF (human) (UniProt P15056)
MAP3K13 (human) = MAP3K13 (human) (UniProt O43283)
INSR (human) = INSR (human) (UniProt P06213)

Chain of ACVR1B (human) (P36896 whole entry, looked up): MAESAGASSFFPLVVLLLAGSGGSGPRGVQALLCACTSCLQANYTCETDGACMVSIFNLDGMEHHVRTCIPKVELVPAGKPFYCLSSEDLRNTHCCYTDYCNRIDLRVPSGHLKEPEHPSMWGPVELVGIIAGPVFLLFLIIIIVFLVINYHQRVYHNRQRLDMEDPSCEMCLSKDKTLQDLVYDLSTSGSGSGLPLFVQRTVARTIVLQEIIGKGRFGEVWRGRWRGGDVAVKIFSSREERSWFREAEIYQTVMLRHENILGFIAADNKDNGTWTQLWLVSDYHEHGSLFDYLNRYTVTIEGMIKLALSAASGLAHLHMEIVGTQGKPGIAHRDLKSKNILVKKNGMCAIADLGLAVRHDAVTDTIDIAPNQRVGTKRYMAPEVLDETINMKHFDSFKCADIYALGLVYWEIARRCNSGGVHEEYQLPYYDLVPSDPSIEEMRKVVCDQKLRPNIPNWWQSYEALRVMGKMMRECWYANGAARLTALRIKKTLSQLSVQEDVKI
Chain of PIK3CA (human), P42336 [E545A] (P42336 whole entry E545A, looked up): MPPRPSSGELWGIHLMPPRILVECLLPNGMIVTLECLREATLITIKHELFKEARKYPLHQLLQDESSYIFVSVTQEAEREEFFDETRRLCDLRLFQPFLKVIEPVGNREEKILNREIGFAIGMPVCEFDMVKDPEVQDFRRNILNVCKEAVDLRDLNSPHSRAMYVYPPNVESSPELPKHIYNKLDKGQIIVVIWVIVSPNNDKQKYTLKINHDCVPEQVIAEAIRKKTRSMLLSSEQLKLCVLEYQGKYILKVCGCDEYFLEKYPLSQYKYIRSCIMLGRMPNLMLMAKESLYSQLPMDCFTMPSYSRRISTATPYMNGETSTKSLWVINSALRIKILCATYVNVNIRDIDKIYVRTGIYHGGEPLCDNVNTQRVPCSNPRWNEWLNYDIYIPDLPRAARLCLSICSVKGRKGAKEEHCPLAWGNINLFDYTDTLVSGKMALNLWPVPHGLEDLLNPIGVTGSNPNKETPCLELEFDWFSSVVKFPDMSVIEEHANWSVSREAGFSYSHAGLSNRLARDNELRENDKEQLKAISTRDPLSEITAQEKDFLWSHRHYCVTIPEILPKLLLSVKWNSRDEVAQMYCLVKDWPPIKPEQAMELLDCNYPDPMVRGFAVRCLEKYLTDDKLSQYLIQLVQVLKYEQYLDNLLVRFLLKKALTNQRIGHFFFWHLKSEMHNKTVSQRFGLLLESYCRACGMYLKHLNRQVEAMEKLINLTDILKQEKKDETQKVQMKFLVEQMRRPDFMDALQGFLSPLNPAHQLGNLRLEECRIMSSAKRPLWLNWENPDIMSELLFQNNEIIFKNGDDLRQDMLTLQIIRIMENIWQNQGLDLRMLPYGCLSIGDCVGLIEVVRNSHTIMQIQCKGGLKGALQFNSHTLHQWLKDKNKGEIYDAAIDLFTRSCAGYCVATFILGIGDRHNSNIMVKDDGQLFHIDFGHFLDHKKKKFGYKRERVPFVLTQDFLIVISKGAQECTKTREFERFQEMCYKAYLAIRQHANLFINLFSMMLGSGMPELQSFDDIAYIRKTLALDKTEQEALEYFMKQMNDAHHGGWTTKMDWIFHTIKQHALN
Chain of PIK3CA (human), P42336 [E542K] (P42336 whole entry E542K, looked up): as the sequence (P42336 whole entry E545A, looked up) above, with E542K, A545E counted along it
Chain of PAK6 (human) (Q9NQU5 whole entry, looked up): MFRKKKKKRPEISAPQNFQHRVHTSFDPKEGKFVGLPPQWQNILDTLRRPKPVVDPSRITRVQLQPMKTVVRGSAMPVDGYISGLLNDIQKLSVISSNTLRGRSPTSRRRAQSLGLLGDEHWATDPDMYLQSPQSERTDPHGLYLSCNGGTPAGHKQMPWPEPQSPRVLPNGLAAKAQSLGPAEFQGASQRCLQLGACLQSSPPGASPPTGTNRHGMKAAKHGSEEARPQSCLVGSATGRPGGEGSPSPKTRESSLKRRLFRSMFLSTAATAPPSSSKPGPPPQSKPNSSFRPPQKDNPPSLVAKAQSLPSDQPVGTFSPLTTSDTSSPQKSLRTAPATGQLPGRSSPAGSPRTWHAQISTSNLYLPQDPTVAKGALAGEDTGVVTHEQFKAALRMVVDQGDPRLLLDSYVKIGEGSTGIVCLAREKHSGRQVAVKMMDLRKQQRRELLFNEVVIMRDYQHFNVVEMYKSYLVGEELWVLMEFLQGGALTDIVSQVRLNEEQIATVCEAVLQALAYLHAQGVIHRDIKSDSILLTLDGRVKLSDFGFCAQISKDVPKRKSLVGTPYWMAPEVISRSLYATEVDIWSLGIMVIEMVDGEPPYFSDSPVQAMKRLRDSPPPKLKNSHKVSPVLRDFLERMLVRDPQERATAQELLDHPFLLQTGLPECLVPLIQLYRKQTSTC
Chain of CDK19 (human) (Q9BWU1 whole entry, looked up): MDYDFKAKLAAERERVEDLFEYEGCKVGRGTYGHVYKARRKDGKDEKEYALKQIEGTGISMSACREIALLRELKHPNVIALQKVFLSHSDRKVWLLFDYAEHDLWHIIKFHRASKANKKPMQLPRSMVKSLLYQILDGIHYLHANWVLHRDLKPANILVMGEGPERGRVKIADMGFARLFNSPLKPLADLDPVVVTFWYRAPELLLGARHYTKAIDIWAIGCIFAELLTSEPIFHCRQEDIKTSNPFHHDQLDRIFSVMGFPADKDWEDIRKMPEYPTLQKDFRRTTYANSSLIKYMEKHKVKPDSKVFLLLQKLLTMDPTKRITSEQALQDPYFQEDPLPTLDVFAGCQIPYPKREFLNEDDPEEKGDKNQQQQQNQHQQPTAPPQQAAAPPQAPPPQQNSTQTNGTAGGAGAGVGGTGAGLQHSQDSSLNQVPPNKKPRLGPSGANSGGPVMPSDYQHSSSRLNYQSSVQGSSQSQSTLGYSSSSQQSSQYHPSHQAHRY
Chain of EPHA2 (human) (P29317 whole entry, looked up): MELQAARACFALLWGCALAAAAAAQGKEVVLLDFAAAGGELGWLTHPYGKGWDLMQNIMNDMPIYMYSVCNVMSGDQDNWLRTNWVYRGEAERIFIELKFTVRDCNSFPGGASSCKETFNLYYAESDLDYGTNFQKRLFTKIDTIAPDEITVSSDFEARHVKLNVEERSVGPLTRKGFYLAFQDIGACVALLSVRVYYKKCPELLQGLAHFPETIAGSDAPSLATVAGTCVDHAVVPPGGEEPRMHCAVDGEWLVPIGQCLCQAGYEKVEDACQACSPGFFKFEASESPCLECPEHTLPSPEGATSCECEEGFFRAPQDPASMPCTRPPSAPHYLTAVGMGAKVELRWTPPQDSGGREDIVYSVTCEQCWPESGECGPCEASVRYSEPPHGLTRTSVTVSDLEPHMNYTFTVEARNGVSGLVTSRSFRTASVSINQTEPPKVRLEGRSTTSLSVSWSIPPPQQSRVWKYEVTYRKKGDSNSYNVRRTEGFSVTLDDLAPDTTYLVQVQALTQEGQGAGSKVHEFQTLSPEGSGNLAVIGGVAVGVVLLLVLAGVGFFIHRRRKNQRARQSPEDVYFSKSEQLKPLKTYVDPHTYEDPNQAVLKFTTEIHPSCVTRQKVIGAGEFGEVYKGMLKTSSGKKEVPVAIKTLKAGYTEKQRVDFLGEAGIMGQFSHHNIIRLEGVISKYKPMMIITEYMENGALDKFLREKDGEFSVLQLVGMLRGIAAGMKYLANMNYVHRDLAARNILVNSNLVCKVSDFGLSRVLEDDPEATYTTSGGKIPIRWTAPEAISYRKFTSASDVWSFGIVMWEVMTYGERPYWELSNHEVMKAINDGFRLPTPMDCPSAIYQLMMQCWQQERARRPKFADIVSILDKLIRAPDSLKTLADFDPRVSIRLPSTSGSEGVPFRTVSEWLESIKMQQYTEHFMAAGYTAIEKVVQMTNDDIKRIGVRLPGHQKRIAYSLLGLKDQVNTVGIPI
Chain of MYLK3 (human) (Q32MK0 whole entry, looked up): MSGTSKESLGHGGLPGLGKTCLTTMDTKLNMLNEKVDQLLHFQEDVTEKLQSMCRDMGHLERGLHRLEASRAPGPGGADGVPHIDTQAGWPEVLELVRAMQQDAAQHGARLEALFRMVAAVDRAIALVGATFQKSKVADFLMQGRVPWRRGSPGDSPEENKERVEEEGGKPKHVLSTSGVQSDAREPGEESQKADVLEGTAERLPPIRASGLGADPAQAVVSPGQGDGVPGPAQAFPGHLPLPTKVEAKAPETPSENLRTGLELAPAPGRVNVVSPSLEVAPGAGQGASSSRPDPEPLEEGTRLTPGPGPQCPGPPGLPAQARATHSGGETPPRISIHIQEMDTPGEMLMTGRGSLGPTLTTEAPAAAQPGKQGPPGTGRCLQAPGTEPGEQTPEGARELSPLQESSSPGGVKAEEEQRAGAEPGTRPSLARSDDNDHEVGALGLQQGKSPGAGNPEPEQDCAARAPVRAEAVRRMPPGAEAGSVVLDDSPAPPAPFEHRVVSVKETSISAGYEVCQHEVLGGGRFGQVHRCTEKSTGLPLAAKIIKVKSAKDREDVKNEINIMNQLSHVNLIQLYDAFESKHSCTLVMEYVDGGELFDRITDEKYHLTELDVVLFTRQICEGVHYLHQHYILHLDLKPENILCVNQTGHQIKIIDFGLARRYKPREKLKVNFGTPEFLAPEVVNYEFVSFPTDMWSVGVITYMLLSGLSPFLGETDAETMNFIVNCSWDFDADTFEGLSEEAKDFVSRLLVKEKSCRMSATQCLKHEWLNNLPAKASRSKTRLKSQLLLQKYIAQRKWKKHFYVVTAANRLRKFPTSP
Chain of PIM1 (human) (P11309 whole entry, looked up): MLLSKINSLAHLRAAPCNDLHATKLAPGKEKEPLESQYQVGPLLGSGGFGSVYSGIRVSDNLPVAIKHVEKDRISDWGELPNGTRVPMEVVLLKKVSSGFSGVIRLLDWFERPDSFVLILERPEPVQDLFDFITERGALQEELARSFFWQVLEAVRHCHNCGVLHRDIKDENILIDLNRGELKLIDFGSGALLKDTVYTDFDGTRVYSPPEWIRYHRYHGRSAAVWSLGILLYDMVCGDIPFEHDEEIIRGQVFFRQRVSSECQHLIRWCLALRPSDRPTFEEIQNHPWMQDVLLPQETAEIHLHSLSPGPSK
Chain of PIK3CA (human), P42336 [Q546K] (P42336 whole entry Q546K, looked up): as the sequence (P42336 whole entry E545A, looked up) above, with A545E, Q546K counted along it

SMILES: Cn1cc(C2=C(c3ccc(Cl)cc3Cl)C(=O)NC2=O)c2ccccc21
- kinase still bound, per cent of control (PRKCD (human)): 41%
- kinase still bound, per cent of control (PIM1 (human)): 22%
- kinase still bound, per cent of control (KIT (human)): 79%
- kinase still bound, per cent of control (PAK6 (human)): 86%
- kinase still bound, per cent of control [1]: 73%
- kinase still bound, per cent of control (CDK17 (human)): 12%
- kinase still bound, per cent of control (PDPK1 (human)): 100%
- kinase still bound, per cent of control (PAK2 (human)): 61%
- kinase still bound, per cent of control (MAPK12 (human)): 100%
- kinase still bound, per cent of control [2]: 100%
- kinase still bound, per cent of control (ZAP70 (human)): 100%
- kinase still bound, per cent of control (MYLK (human)): 64%
- kinase still bound, per cent of control (NEK9 (human)): 100%
- kinase still bound, per cent of control (EPHA2 (human)): 100%
- kinase still bound, per cent of control (EPHA8 (human)): 100%
- kinase still bound, per cent of control (CAMK2A (human)): 36%
- kinase still bound, per cent of control [3]: 90%
- kinase still bound, per cent of control (CSNK1A1L (human)): 100%
- kinase still bound, per cent of control (TEK (human)): 73%
- kinase still bound, per cent of control (MAP3K1 (human)): 100%
- kinase still bound, per cent of control (ACVR1B (human)): 89%
- kinase still bound, per cent of control (CDK19 (human)): 100%
- kinase still bound, per cent of control (DYRK1B (human)): 2.2%
- kinase still bound, per cent of control (NIM1 (human)): 100%
- kinase still bound, per cent of control [4]: 96%
- kinase still bound, per cent of control (CSNK1G2 (human)): 100%
- kinase still bound, per cent of control (RPS6KA4 KD1 (human)): 100%
- kinase still bound, per cent of control (MYLK3 (human)): 90%
- kinase still bound, per cent of control (PIK3CG (human)): 93%
- kinase still bound, per cent of control (HCK (human)): 100%
- kinase still bound, per cent of control (ALK (human)): 100%
- kinase still bound, per cent of control (STK32C (human)): 94%
- kinase still bound, per cent of control [5]: 100%
- kinase still bound, per cent of control (DCLK2 (human)): 100%
- kinase still bound, per cent of control (ANKK1 (human)): 86%
- kinase still bound, per cent of control (RPS6KA2 KD2 (human)): 78%
- kinase still bound, per cent of control (BTK (human)): 100%
- kinase still bound, per cent of control [6]: 100%
- kinase still bound, per cent of control (BRAF (human)): 80%
- kinase still bound, per cent of control (MAP3K13 (human)): 84%
- kinase still bound, per cent of control (INSR (human)): 91%
